Data as given in US7795222B2, “Methods for treating a corneal disorder and promoting skin wound healing” (Santen Pharmaceutical Co., Ltd., priority 2001, dated 2010).
Where no end group is shown, it is not given here.

Tested on: corneal epithelium
Test: Action for extending corneal epithelium (in vitro), corneal blocks in tissue culture
Assay type: cell-based, male Japanese White rabbit
Conditions: for Extension ratio (%): 24 hours culture, control = 100%, mean of six sections; for activity in corneal epithelium extension test: in combination with substance P; for influence on the extension of corneal epithelium: peptide alone
Experimental: (1) Action For Extending Corneal Epithelium (In Vitro)
Using the cornea of a male Japanese White rabbit and according to the method of Nishida et al. (J. Cell Biol., 97, 1653-1657 (1983)), the length of corneal epithelium extension of the corneal section in a tissue culture system was used as a marker to examine the influence on corneal epithelium extension.
Corneal blocks cut off from rabbit corneal section (6 blocks per group) were cultured in culture media (TC-199) containing a test compound under conditions of 5% CO2 at 37° C. for 24 hours. After culturing, the corneal blocks were fixed in a mix solution of ethanol-glacial acetic acid (volume ratio: 95:5) and then embedded in paraffin to prepare sections. After paraffin was removed from the sections, the resulting sections were stained with hematoxylin-eosin to examine the extended length of the corneal epithelial cell layer with a microscope. As a control, the blocks cultured in the same manner in the culture media without any test compound were used.
Herein, the extension ratio in the table is the mean of six sections per group, as calculated when the elongated length of the control group was defined as the basal line (100%).

[1] = test peptide 1 nM + substance P (20 μM)

Substance	Extension ratio (%) [1]	Extension ratio (%) (test peptide alone, 1 nM)	other results
ASSSRRAP (Human) [Ala-Ser-Ser-Ser-Arg-Arg-Ala-Pro]	134%	–	–
GSSSRAAAP (Human) [Gly-Ser-Ser-Ser-Arg-Ala-Ala-Ala-Pro]	139%	100%	–
GSSSRAAP (Human) [Gly-Ser-Ser-Ser-Arg-Ala-Ala-Pro]	150%	–	–
GSSSRR	142%	94%	–
GSSSRRAP (Human) [Gly-Ser-Ser-Ser-Arg-Arg-Ala-Pro]	140%	97%	activity in corneal epithelium extension test: the activity still remained
GYGSSSRRAPQT (Human) [Gly-Tyr-Gly-Ser-Ser-Ser-Arg-Arg-Ala-Pro-Gln-Thr, the peptide composing the domain C of IGF-I]	134%	104%	activity in corneal epithelium extension test: had the activity
Gly-Ser-Ser-Ser-Arg (GSSSR; Human)	135%	101%	–
Phe-Gly-Leu-Met-NH2 (FGLM-NH2) [tetrapeptide on the C terminal of substance P, reference compound]	–	–	influence on the extension of corneal epithelium: not observed to have any influence; Extension ratio (%) (test peptide alone, 20 μM): 99%
Ser-Ser-Ser-Arg (SSSR; Human)	138%	101%	Extension ratio (%) (test peptide 1 nM + FGLM (20 μM)): 145%
Ser-Ser-Ser-Arg-Arg (SSSRR; Human)	136%	98%	–
Substance P: polypeptide consisting of 11 amino acids (RPKPQQFFGLM-NH2; ends and bridges not checked; UniProt P20366 58-68, looked up) [reference compound]	–	–	influence on the extension of corneal epithelium: not observed to have any influence; Extension ratio (%) (test peptide alone, 20 μM): 94%
